Measurements from patent US20080145313A1, “Compositions and Methods for the Treatment and Prevention of Neoplastic Disorders” (Genesis Research & Development Corporation Limited, priority 2006, published 2008).

System: A549 cells
Assay: Growth inhibition of siRNA-transfected A549 cells, SYBR Green I DNA content
Type: cell-based, human
Details: 10 nM siRNA; DNA content 96 hours after transfection
Protocol: A549 cells (human lung cancer cell line; ATCC No. CCL-185), SK-MeI-5 cells (human melanoma cell line; ATCC No. HTB-70), MCF-7 cells (human adenocarcinoma cell line; ATCC No. HTB-22), HCT-116 cells (colorectal carcinoma; ATCC CCL-247) and HCT-116 p53 null cells (derived from ATCC No. CCL-247; Bunz et al., Science 282:1497-1501, 1998) were cultured in RPMI 1640 medium with 10% v/v heat-inactivated fetal calf serum (FCS). Cells were seeded at a density of 5×10^4 cells/cm^2 in multi-well tissue culture plates. Sequences of Stealth™ siRNA duplexes (Invitrogen) targeting human ribonucleotide reductase subunit 1 (SEQ ID NO: 22) and subunit 2 (SEQ ID NO; 38) are given in SEQ ID NO: 4830-4832 (DNA), and SEQ ID NO: 5136-5138 (RNA) for RRM1, and SEQ ID NO: 5306-5308 (DNA), and SEQ ID NO: 5303-5305 (RNA) for RRM2. siRNAs were transfected at different concentrations into cells using Lipofectamine™ RNAiMAX transfection reagent (Invitrogen). Non-specific siRNA (SEQ ID NO: 4804 and 4805 (DNA), and SEQ ID NO: 5301 and 5302 (RNA)) were used as controls. The cellular DNA content was measured using a SYBR Green I-based fluorometric assay at 24, 48, 72 and 96 hours after transfection (120 hours for the MCF-7 cells), as follows. At the indicated time points following reverse transfection, cells were harvested and frozen at −80° C. overnight. Cells were thawed and cell lysis buffer (phosphate-buffered saline (PBS) containing 1% Triton X-100, pH 7) and SYBR Green I (1:10^5 V/V; Invitrogen) was added to the wells and incubated overnight in the dark at 4° C.
The following day, cell lysates were mixed thoroughly, and DNA fluorescence was measured with a Wallac Victor^2 plate reader (Turku, Finland) set at an excitation frequency of 485 nm and measuring emission at 535 nm.
To determine the duration of the knock-down effect of RRM1-targeting siRNA, A549 cells were reverse transfected with 1 or 10 nM RRM1-3 (SEQ ID NO: 4832 (DNA, and SEQ ID NO: 5138 (RNA)) or control siRNA (SEQ ID NO: 4804 (DNA), and SEQ ID NO: 5301 (RNA)), and growth followed over time. Growth inhibition was measured daily as described above for up to ten days. RRM1-3-mediated RRM1 silencing inhibited growth for at least 10 days post-transfection at both 1 and 10 nM (FIG. 11).
siRNA-mediated inhibition of cancer cell growth was determined in A549 cells as follows. A549 cells (human lung cancer cell line; ATCC No. CCL-185) were cultured in RPMI 1640 medium with 10% v/v heat-inactivated fetal calf serum. Cells were seeded at a density of 5×10^3 cells/cm^2 in multi-well tissue culture plates. Stealth™ siRNA duplexes (Invitrogen) targeting genes involved in cancer energy and metabolism pathways and listed in Table 9, were transfected at 10 nM into cells using Lipofectamine™ RNAiMAX transfection reagent (Invitrogen). Non-specific siRNA (SEQ ID NO: 4804 and 4805 (DNA), and SEQ ID NO: 5301 and 5302 (RNA)) were used as controls. The cellular DNA content was measured using a SYBR Green I-based fluorometric assay at 96 hours after transfection. The cells were harvested and frozen at −80° C. overnight. Cells were thawed and cell lysis buffer (phosphate-buffered saline (PBS) containing 1% Triton X-100, pH 7) and SYBR Green I (1:10^5 v/v; Invitrogen) was added to the wells and incubated overnight in the dark at 4° C. The following day, cell lysates were mixed thoroughly, and DNA fluorescence was measured with a Wallac Victor^2 plate reader (Turku, Finland) set at an excitation frequency of 485 nm and measuring emission at 535 nm.
Three different siRNAs were tested for each target gene. The average fluorescence units from three replicate wells, representing the amount of DNA per well, were used to determine the effect on growth inhibition. The results are given in Table 10 (energy and metabolism gene targets) and Table 11 (transporter gene targets).
siRNA-mediated RNAi was also determined on a panel of different cell lines. […]

How did the “Growth Inhibition in A549 cells” value turn out when “SEQ ID NO: 4855: siRNA targeting FASN (chain 1 TTGGAAGGCACATCCCAGAGGAAGT; chain 2 UUGGAAGGCACAUCCCAGAGGAAGU; Both strands are one antisense strand in DNA/RNA notation, chemistry not given here, further chemistry not given here; one strand in two spellings)” was run?
The value was “+ (inhibits by at least 50%)”.

For “SEQ ID NO: 5001: siRNA targeting DPYD (chain 1 GCTAGCATTATGTGCAGTTACAATA; chain 2 GCUAGCAUUAUGUGCAGUUACAAUA; chemistry not given here; one strand in two spellings)”, which “Growth Inhibition in A549 cells” value is on record?
The value was “− (no growth inhibition with any siRNA)”.

How did the “Growth Inhibition in A549 cells” value turn out when “SEQ ID NO: 4999: siRNA targeting UMPS (chain 1 TGGAAACTGTTGAGGTTCTTCAGAA; chain 2 UGGAAACUGUUGAGGUUCUUCAGAA; chemistry not given here; one strand in two spellings)” was run?
Its value is “+ (inhibits by at least 50%)”.

With “SEQ ID NO: 5000: siRNA targeting UMPS (chain 1 GCTGTTGCAGCTAGCAGATGCTTTA; chain 2 GCUGUUGCAGCUAGCAGAUGCUUUA; chemistry not given here; one strand in two spellings)” as the substance, how does the “Growth Inhibition in A549 cells” value read?
Its value is “− (no growth inhibition with any siRNA)”.

“SEQ ID NO: 4861: siRNA targeting SLC25A5 (ANT2) (chain 1 ATTTGTAGATCTTAACCAGGCAGTC; chain 2 AUUUGUAGAUCUUAACCAGGCAGUC; Both strands are one antisense strand in DNA/RNA notation, chemistry not given here, further chemistry not given here; one strand in two spellings)” was tested. Which “Growth Inhibition in A549 cells” value did it give?
Its value is “− (no growth inhibition with any siRNA)”.

For “SEQ ID NO: 4995: siRNA targeting DGUOK (chain 1 CCTCATGAGAGAGGTAAACACCTTT; chain 2 CCUCAUGAGAGAGGUAAACACCUUU; chemistry not given here; one strand in two spellings)”, which “Growth Inhibition in A549 cells” value is on record?
Its value is “− (no growth inhibition with any siRNA)”.

How did the “Growth Inhibition in A549 cells” value turn out when “SEQ ID NO: 4864: siRNA targeting SLC25A6 (ANT3) (chain 1 AAATCCAGCGGGTACACGAAGCAGA; chain 2 AAAUCCAGCGGGUACACGAAGCAGA; Both strands are one antisense strand in DNA/RNA notation, chemistry not given here, further chemistry not given here; one strand in two spellings)” was run?
The value was “− (no growth inhibition with any siRNA)”.

With “SEQ ID NO: 4880: siRNA targeting IMPDH2 (chain 1 TCCCTGTTCATATTTCTTCACTTTC; chain 2 UCCCUGUUCAUAUUUCUUCACUUUC; Both strands are one antisense strand in DNA/RNA notation, chemistry not given here, further chemistry not given here; one strand in two spellings)” as the substance, how does the “Growth Inhibition in A549 cells” value read?
The value was “+ (inhibits by at least 50%)”.

With “SEQ ID NO: 4854: siRNA targeting FASN (chain 1 ATGAAGCTCACCCAGTTATCCTTCC; chain 2 AUGAAGCUCACCCAGUUAUCCUUCC; Both strands are one antisense strand in DNA/RNA notation, chemistry not given here, further chemistry not given here; one strand in two spellings)” as the substance, how does the “Growth Inhibition in A549 cells” value read?
Its value is “− (no growth inhibition with any siRNA)”.

With “SEQ ID NO: 4812: siRNA targeting HK-II (chain 1 ATACTGGTCAACCTTCTGCACTTGG; chain 2 AUACUGGUCAACCUUCUGCACUUGG; chemistry not given here; one strand in two spellings)” as the substance, how does the “Growth Inhibition in A549 cells” value read?
The value was “− (no growth inhibition with any siRNA)”.

“SEQ ID NO: 4987: siRNA targeting DCK (chain 1 CAAGACTGGCATGACTGGATGAATA; chain 2 CAAGACUGGCAUGACUGGAUGAAUA; Both strands are one antisense strand in DNA/RNA notation, chemistry not given here, further chemistry not given here; one strand in two spellings)” was tested. Which “Growth Inhibition in A549 cells” value did it give?
The value was “− (no growth inhibition with any siRNA)”.

“SEQ ID NO: 4865: siRNA targeting SLC25A6 (ANT3) (chain 1 TTTGCGCCCGAACTGCATCATCATG; chain 2 UUUGCGCCCGAACUGCAUCAUCAUG; Both strands are one antisense strand in DNA/RNA notation, chemistry not given here, further chemistry not given here; one strand in two spellings)” was tested. Which “Growth Inhibition in A549 cells” value did it give?
Its value is “− (no growth inhibition with any siRNA)”.

How did the “Growth Inhibition in A549 cells” value turn out when “SEQ ID NO: 4844: siRNA targeting NADSYN (chain 1 TTTCTATGCACCGAAACTGCCAAGG; chain 2 UUUCUAUGCACCGAAACUGCCAAGG; chemistry not given here; one strand in two spellings)” was run?
The value was “− (no growth inhibition with any siRNA)”.

With “SEQ ID NO: 4859: siRNA targeting ACLY (chain 1 TACAGATGAACTTGTAAAGGAGTTC; chain 2 UACAGAUGAACUUGUAAAGGAGUUC; Both strands are one antisense strand in DNA/RNA notation, chemistry not given here, further chemistry not given here; one strand in two spellings)” as the substance, how does the “Growth Inhibition in A549 cells” value read?
Its value is “− (no growth inhibition with any siRNA)”.

“SEQ ID NO: 4810: siRNA targeting H6PD (G6PDH) (chain 1 TCTTGAACAAGATCCGAGCGTAGCC; chain 2 UCUUGAACAAGAUCCGAGCGUAGCC; chemistry not given here; one strand in two spellings)” was tested. Which “Growth Inhibition in A549 cells” value did it give?
The value was “− (no growth inhibition with any siRNA)”.

How did the “Growth Inhibition in A549 cells” value turn out when “SEQ ID NO: 4853: siRNA targeting ATP5B (chain 1 TATACCAGCGCTACCTTAGAGGTGG; chain 2 UAUACCAGCGCUACCUUAGAGGUGG; Both strands are one antisense strand in DNA/RNA notation, chemistry not given here, further chemistry not given here; one strand in two spellings)” was run?
Its value is “+ (inhibits by at least 50%)”.

How did the “Growth Inhibition in A549 cells” value turn out when “SEQ ID NO: 4877: siRNA targeting CTPS (chain 1 AGCACCTGCATACAACCAGATCTGG; chain 2 AGCACCUGCAUACAACCAGAUCUGG; Both strands are one antisense strand in DNA/RNA notation, chemistry not given here, further chemistry not given here; one strand in two spellings)” was run?
Its value is “+ (inhibits by at least 50%)”.

For “SEQ ID NO: 4816: siRNA targeting LDHA/5 (chain 1 AAATATGTTCACGTTACGCTGGACC; chain 2 AAAUAUGUUCACGUUACGCUGGACC; chemistry not given here; one strand in two spellings)”, which “Growth Inhibition in A549 cells” value is on record?
The value was “+ (inhibits by at least 50%)”.
